Data set [1] in a line: In vivo pharmacokinetic study. Also noted: species or system Sprague-Dawley rats. Conditions: rats, iv, DiD 0.5 mg kg^−1, plasma DiD fluorescence. The method, then:
In vivo pharmacokinetic study. The jugular vein of female Sprague-Dawley rats (200-250 g) was implanted with a catheter for drug injection and blood collection (Harland, Indianapolis, IN, USA). Rats (n=3) were injected with free DiD, BAQ12 NPs@DiD (10:1, mass ratio) and BAQ13 NPs@DiD (10:1, mass ratio), respectively, which contained an equivalent dose of DiD (0.5 mg kg^−1). Blood samples were collected at the indicated time points and then were centrifuged to obtain the plasma. The plasma was diluted with DMSO (1:100), and the fluorescence intensity (λEx=595 nm, λEm=665 nm) was measured by a microplate reader (SpectraMax M2).

Data set [2] in a line: Drug loading using BAQ13 NPs. It counts as physicochemical. Here is the method: Preparation and characterization of BAQ ONNs. NPs were prepared through the re-precipitation method. BAQ derivatives in methanol were added dropwise into MilliQ water while stirring for 5 min (volume ratio, 1:10), and then homogenous NPs were obtained after rotary evaporation (40° C., 20 min), followed by the characterization with Zetasizer Nano ZS (Malvern). The TEM samples were prepared by dropping 0.5 mM NPs on carbon square mesh and dried naturally, which were then observed under the Talos L120C TEM (FEI) at an accelerating voltage of 80 kV. To determine the drug content in nanoformulations, the prepared drug-loaded NPs were cut off by centrifugal filter (ultracel-10 kDa, Millipore), and the absorbance of filtrate (diluted with DMSO, 1:10, volume ratio) was measured for calculation of drug concentrations.
Next investigation was whether liposome-like BAQ ONNs can encapsulate additional agents. Upon nanoprecipitation of BAQ13 and various agents, homogeneous NPs with monomodal size distributions spontaneously formed (Table 2 and FIG. 9G).

Data set [3] relates to HT29 tumours. As to the kind of experiment: In/ex vivo biodistribution, HT29 model. Also on record: species or system nude mice. The note with it: in vivo and ex vivo imaging, 12 h and 24 h post-injection. Here is the method:
In/ex vivo biodistribution. Nude mice bearing the HT29 tumours were subjected to iv administration of BAQ13 NPs@DiD (10:1, mass ratio) at a dose of 1.0 mg kg^−1 DiD. In vivo imaging studies were performed at the corresponding time point. Organs (brain, heart, lung, liver, spleen, kidney, intestines, and muscle) and tumours were collected from mice for ex vivo imaging. Biodistribution of BAQ13 NPs@ NAPA+DiD (10/2.5/1.0 mg kg^−1, iv) was studied on NRG mice bearing PCSC tumours. Both in vivo and ex vivo imaging studies were performed as above.

The subject of a further data set is MIA PaCa-2 cells. As to the kind of experiment: RNA sequencing, differentially expressed genes. It counts as cell-based, human. The note with it: 5 μM, 24 h, vs vehicle. The method, then: RNA-seq. Total RNA was extracted by the RNeasy Mini Kit (Qiagen, Germany) from the treated MIA PaCa-2 cells (5 μM, 24 h). Samples were submitted to the UC Davis Comprehensive Cancer Center's Genomics Shared Resource (GSR) for RNA-Seq analysis. Stranded RNA-Seq libraries were prepared from 100 ng total RNA using the NEBNext Ultra Directional RNA Library Prep Kit (New England BioLabs). Subsequently, libraries were combined for multiplex sequencing on an Illumina HiSeq 4000 System (2×150 bp, paired-end, >20×10^6 reads per sample). The data of normalized genes read counts were analyzed using fold change and t test. The Differentially expressed genes (DEGs) were collected for the signaling pathways enrichment by Funrich software 3.1.3. The gene sets were from MSigDB database (Broad Institute). GSEA was performed using GSEA version 3.0 in KEGG gene sets category online, with the following parameters: n=1,000 permutations, where p-adjust <0.05, and FDR <0.05 were considered significant.

Another data set is described as follows: In vivo toxicity studies. Also on record: species or system FVB/N mice. The note with it: 10 mg kg^−1, iv. The method, then:
In vivo toxicity studies. The toxicity of BAQ NPs was investigated on female FVB/N mice via iv injection. Mice were administrated with various concentrations (10 mg kg^−1, 20 mg kg^−1 or 40 mg kg^−1) of Lys05, Liposomes@Lys05, BAQ12 NPs, and BAQ13 NPs every two days. The status of mice was monitored every day and their body weight was recorded every two days. Blood samples were collected and sent to the UCD Comparative Pathology Laboratory for tests of complete blood count (CBC) and serum chemistry.

The next data set concerns MCF-7. As to the kind of experiment: MTS cell viability assay. It counts as cell-based. Conditions: 24 h; read-out: IC50 (μM) in the 24 h treatment MCF-7. The method, then:
(§1) Cell line and cell culture. The human pancreatic cancer cell lines (MIA PaCa-2, BXPC3, and PANC-1) were originally purchased from ATCC and were kindly provided by Dr. Shiro Urayama's Lab. HT29, HCT116, H460, MCF7, NIH/3T3, and IMR-90 cell lines were purchased from ATCC. Bone marrow cells were collected from the leg bone marrows of FVB/N mice. All the cells were cultured at 37° C. in a humidified atmosphere of 5% CO2/95% air using the corresponding medium supplemented with 10% fetal bovine serum, […] according to ATCC protocol. All the cell lines have been tested for mycoplasma contamination routinely.
(§2) Cell viability, cell growth and colony formation. Cell viability was assessed by the MTS assay. Briefly, cells in 96-well plates (4,000 cell per well) were treated as indicated, followed by the incubation with MTS regents for 4 h. OD values (490 nm) were determined via a microplate reader. Results were shown as the average cell viability calculated from the formula of [(ODtreat−ODblank)/(ODcontrol−ODblank)×100%]. Drug combination data were analyzed by Combenefit 2.02. In cell growth assay, cells in 6-well plates (50,000 cell per well) were treated as indicated and were counted manually every 24 h. Colony formation assay was also performed on 6-well plates with a starting density of 1,000-2,000 cells per well. After incubated as indicated for 10-20 days, cells were washed with PBS and stained with the solution of crystal violet and methanol for 20 min.

For the next data set, the system named is IMR-90. Nature of the data set: MTS cell viability assay. It counts as cell-based. Conditions: 48 h, non-cancerous cells; read-out: IC50 values from the 48 h MTS assay (μM) IMR-90. The method, then:
as §1, §2

The subject of a further data set is HT29. As to the kind of experiment: MTS cell viability assay. Conditions: 24 h; read-out: IC50 (μM) in the 24 h treatment HT29. Type of data set: cell-based. The method, then: as §1, §2
A general note: Tetrazolium dyes change colour on reduction, which living cells bring about.

The test system of another data set is H460. Nature of the data set: MTS cell viability assay. Type of data set: cell-based. Conditions: 24 h; read-out: IC50 (μM) in the 24 h treatment H460. Here is the method: as §1, §2
A further data set deals with NIH/3T3. Nature of the data set: MTS cell viability assay. Type of data set: cell-based. Conditions: 48 h, non-cancerous cells; read-out: IC50 values from the 48 h MTS assay (μM) NIH/3T3. The method, then: as §1, §2
The next data set relates to HCT116. As to the kind of experiment: MTS cell viability assay. Type of data set: cell-based. Conditions: 48 h; read-out: IC50 values from the 48 h MTS assay (μM) HCT116. Here is the method:
as §1, §2

The next data set has as its system Bone marrow cells. Nature of the data set: MTS cell viability assay. Type of data set: cell-based, FVB/N mice. Conditions: 48 h, non-cancerous cells; read-out: IC50 values from the 48 h MTS assay (μM) Bone marrow. The method, then:
as §1
as §2, with “After incubated as indicated for 10-20 days, cells were washed with PBS and stained with the solution of crystal violet and methanol for 20 min.” left out

For the next data set, the system named is MIA PaCa-2 tumours. As to the kind of experiment: MIA PaCa-2 xenograft model. Type of data set: in vivo, NRG mice. The note with it: 20 mg kg^−1 every three days. Here is the method: In vivo treatment schedule.
Antitumour effect as single agents in mice. After proving the safety of BAQ ONNs, the NPs for anticancer efficacy was evaluated in a pancreatic xenograft model of MIA PaCa-2 cells. NRG mice with MIA PaCa-2 tumours (˜100 mm^3) were randomly assigned into five groups (n=6): the saline (iv) group, the Lys05 (ip) group, the liposomes@Lys05 (iv) group, the BAQ12 NPs (iv) group and the BAQ13 NPs (iv) group. The mice were then treated every three days at a dose of 20 mg kg^−1. […] These findings clearly illustrate the potential advantages of BAQ ONNs with regard to both drug discovery and drug delivery.

The test system of data set [4] is HT29 tumours. As to the kind of experiment: HT29 xenograft model. The note with it: mice bearing HT29 tumours, treatment terminated on the 24th day.
Experimental: Animal model. To establish the subcutaneous xenograft models, 5×10^6 of MIA PaCa-2 cells, 2×10^6 of HT29 cells or 2×10^4 PCSCs suspended with Matrigel (Corning) and PBS mixture (1:1, volume ratio) were injected subcutaneously into the right flank of nude mice or NRG mice, respectively.
In vivo treatment schedule. The NRG mice bearing MIA PaCa-2 xenograft tumours (˜100 mm^3) were randomized into 5 groups (n=6), and then were subjected to iv injection every three days as indicated. […] The treatment on HT29 model was stopped on Day 24, and then the mice survival in each group was recorded, in which the mouse with a tumour larger than 1,000 mm^3 was considered dead. […] The tumour volume and body weight were recorded before drug administration every time. At the end of the treatment, mice were sacrificed and the tumours were collected for further analysis.
The subject of a further data set is Red blood cells. As to the kind of experiment: pH-dependent haemolysis test. It counts as cell-based. The note with it: whole pH range, same concentration (50 μM, 4 h).
The nature of data set [5]: Titration with hydrochloric acid (pH buffering capacity). It counts as physicochemical. Conditions: 1 mM, 0.1 M HCl.
Another data set has as its system PANC-1. Nature of the data set: MTS cell viability assay. It counts as cell-based, human. The method, then:
as §1, §2

The subject of another data set is BXPC-3. As to the kind of experiment: MTS cell viability assay. It counts as cell-based, human. Here is the method:
as §1, §2

For the next data set, the system named is MIA PaCa-2. Nature of the data set: MTS cell viability assay. Conditions: 24 h; read-out: IC50 (μM) in the 24 h treatment MIA PaCa-2. Type of data set: cell-based, human. Here is the method: as §1, §2
[6] abbreviates: BAQ13 NPs loaded with the drug or dye.

Read-outs that look alike come from different tables or passages of the source.

Experimental for Red blood cells: After centrifugation at 500×g for 5 min, the extent of haemolysis was spectrophotometrically determined according to the amount of haemoglobin in supernatants (540 nm). The haemolysis assay was used to assess the pH-dependent detergence ability and toxicity of NPs.

Turning to `CCCCCCCCCCCCCCCCCCN1C(=CC=CC=CC2=[N+](CCCCCCCCCCCCCCCCCC)c3ccccc3C2(C)C)C(C)(C)c2ccccc21.[O-][Cl+3]([O-])([O-])[O-]` [Free DiD, 1,1′-dioctadecyl-3,3,3′,3′-tetramethylindodicarbocyanine perchlorate], the “T1/2” value in [1] is 48 min. In data set [2] (setting [6]), this compound returned a PDI of 0.1 and a Size/diameter of 120 nm. In [2] (drug or dye loaded in BAQ13 NPs), this compound had an Encapsulation efficiency of 100%. In [2] (drug or dye loaded in BAQ13 NPs, mass ratio), the Drug-loading content was 50%. The “biodistribution of fluorescence signals” value in the data set on HT29 tumours [3] is reported as “high signals in the lungs, rather than in the tumour sites”.

As to `CN(CCNc1ccnc2cc(Cl)ccc12)CCNc1ccnc2cc(Cl)ccc12` [Lys05], in the data set on MIA PaCa-2 cells, the downregulated genes turned out to be 103. Also, the upregulated genes in the data set with MIA PaCa-2 cells is listed as 62. For the same compound, in the data set on MIA PaCa-2 cells (fold change≥2 and p value≤0.05), the “differentially expressed genes (DEGs)” value came to 165. Besides, in the data set “In vivo toxicity studies”, the “mortality after iv administration” value was “acute death of mice”. Besides, the IC50 in the data set on MCF-7 was 12.3 ± 0.7 µM; in the data set on IMR-90 it was 15.5 ± 2.5 µM; with HT29, 10.6 ± 3.4 µM; with H460 it was 11.1 ± 0.6 µM; in the data set with NIH/3T3 it was 12.6 ± 0.9 µM; in the data set on HCT116 it was 8 ± 0.7 µM. The IC50 with Bone marrow cells worked out at 14 ± 1.1 µM; in the data set with PANC-1 (24 h, read-out: IC50 (μM) in the 24 h treatment PANC-1), 13.3 ± 2 µM; with PANC-1 (48 h, read-out: IC50 values from the 48 h MTS assay (μM) PANC-1), 10.8 ± 0.9 µM; with BXPC-3 (24 h, read-out: IC50 (μM) in the 24 h treatment BXPC-3), 7.8 ± 0.9 µM; with BXPC-3 (48 h, read-out: IC50 values from the 48 h MTS assay (μM) BXPC-3), 11.1 ± 1.7 µM; with MIA PaCa-2, 16.7 ± 4.7 µM. The tumour growth result in the data set with MIA PaCa-2 tumours is reported as “did not display a therapeutic effect”. In addition, the “Median Survival” value in the data set with HT29 tumours [4] was 28 days. In the data set on Red blood cells, the “haemolytic response to pH” value was “did not elicit observable haemolysis”. In addition, in [5], the “pH plateau upon titration with HCl” value is listed as 7.2.

The record behind these values is patent US20230348419A1, “BIAMINOQUINOLINES AND NANOFORMULATIONS FOR CANCER TREATMENT” (The Regents of the University of California, priority 2019, published 2023).
